Measured values as given in patent publication US7592305B2, “Use of ghrelin for treating malnutrition in gastrectomized individuals” (Gastrotech Pharma A/S, priority 2002, dated 2009).
Ends that are not written are not given here. * marks the point of attachment. Octanoyl = CCCCCCCC(=O)*

System: gastrectomised rats
Assay: Treatment of totally gastrectomised (vagotomised) rats with ghrelin analogue MK-0677 by gavage
Type: in vivo, rat
Method: Total gastrectomy was performed and followed by end-to-end anastomosis between the esophagus and the duodenum as described in Lehto-Axtelius D., et al. Osteopenia after gastrectomy, fundectomy or antrectomy: an experimental study in the rat., Regul. Pept. 78 (1998), 41-50. The gastrectomy was accompanied by total vagotomy at the level of cardia. Sham operation was performed by opening the abdomen and moving the stomach.
In sham gastrectomised rats the ghrelin levels were 2.06±0.22 ng/ml, while they were less than the least detectable level of the assay, i e, 0.25 ng/ml after gastrectomy. From four weeks after gastrectomy the animals were administered either water or the ghrelin analogue MK-0677 by gavage once daily (4 mg/kg/day).
Food intake and body weight was measured daily and throughout the experiment. […] After two weeks of treatment, the animals were decapitated and blood and tissues collected and rapidly frozen. Gonadal, mesenteric and retroperitoneal far pads were dissected and weighed, and the sum of the weight was then calculated. Ghrelin was measured in serum using a kit purchased from Phoenix Pharmaceuticals as described (Dornonville de la Cour, supra).

[1] = 4 mg/kg/day by gavage once daily, after two weeks of treatment, vs water

Row | Compound | body weight (4 mg/kg/day by gavage once daily from four weeks after gastrectomy, two weeks of treatment, vs water) | hypothalamic levels of neuropeptide Y (NPY) mRNA [1] | sum of dissected fat pad weights (gonadal, mesenteric and retroperitoneal) [1] | desire for food (food intake measured daily) (treated once daily by gavage)
1 | CC(C)(N)C(=O)N[C@H](COCc1ccccc1)C(=O)N1CCC2(CC1)CN(S(C)(=O)=O)c1ccccc12 [MK677] | increased | increased | enhanced | 
2 | ghrelin: acylated peptide of 28 amino acids with an octanoyl ester attached to a serine residue (GSS(Octanoyl)FLSPEHQRVQQRKESKKPPAKLQPR; listed as Homo sapiens) |  |  |  | increased
